According to the supplement of paper PMC10733146:

What was measured:
Test in all cases: viability relative to DMSO control (fraction); higher = less drug effect (more viable cells)
Conditions in all cases: 48 h
CPI-169 = compound: CCS(=O)(=O)N1CCC([C@@H](C)n2c(C)c(C(=O)NCc3c(OC)cc(C)[nH]c3=O)c3ccccc32)CC1 [CPI-169]
In short: (§1)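 Using 384-well plates with compounds already plated at five concentrations, one well per concentration, 4 × 10^4 primary mononuclear tumour cells were added per well. Cells were Ficoll-isolated from blood or bone marrow or came from processed lymph node, fresh or cryopreserved. They were kept for 48 h at 37 °C and 5% CO2 in RPMI-1640 supplemented with penicillin/streptomycin, L-glutamine and human serum, and viability was read as CellTiter-Glo luminescence relative to the median of 16 inner DMSO wells.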

[1] = compound: C[C@H]1C[C@@H](n2c(Nc3ccc(OC(F)(F)F)cc3)nc3cc(CCC(=O)O)ccc32)CC(C)(C)C1
In short: as §1

Tofacitinib = compound: C[C@@H]1CCN(C(=O)CC#N)C[C@@H]1N(C)c1ncnc2[nH]ccc12 [Tofacitinib]
In short: as §1

Vindesine = compound: CC[C@]1(O)C[C@@H]2CN(CCc3c([nH]c4ccccc34)[C@@](C(=O)OC)(c3cc4c(cc3OC)N(C)[C@H]3[C@@](O)(C(N)=O)[C@H](O)[C@]5(CC)C=CCN6CC[C@]43[C@@H]65)C2)C1 [Vindesine]
In short: as §1

Venetoclax = compound: CC1(C)CCC(CN2CCN(c3ccc(C(=O)NS(=O)(=O)c4ccc(NCC5CCOCC5)c([N+](=O)[O-])c4)c(Oc4cnc5[nH]ccc5c4)c3)CC2)=C(c2ccc(Cl)cc2)C1 [Venetoclax]
In short: as §1

[2] = compound: C[C@H](NC(=O)CCC(F)(F)F)C(=O)N[C@@H]1C(=O)N(CCO)c2ncccc2-c2ccccc21
In short: as §1

Entospletinib = compound: c1cn2cc(-c3ccc4cn[nH]c4c3)nc(Nc3ccc(N4CCOCC4)cc3)c2n1 [Entospletinib]
In short: as §1

Midostaurin hydrate = compound: CO[C@@H]1[C@H](N(C)C(=O)c2ccccc2)C[C@H]2O[C@]1(C)n1c3ccccc3c3c4c(c5c6ccccc6n2c5c31)C(=O)NC4 [Midostaurin hydrate]
In short: as §1

EPZ-6438 = compound: CCN(c1cc(-c2ccc(CN3CCOCC3)cc2)cc(C(=O)NCc2c(C)cc(C)[nH]c2=O)c1C)C1CCOCC1 [EPZ-6438]
In short: as §1

Everolimus = compound: CO[C@H]1C[C@@H]2CC[C@@H](C)[C@@](O)(O2)C(=O)C(=O)N2CCCC[C@H]2C(=O)O[C@H]([C@H](C)C[C@@H]2CC[C@@H](OCCO)[C@H](OC)C2)CC(=O)[C@H](C)/C=C(\C)[C@@H](O)[C@@H](OC)C(=O)[C@H](C)C[C@H](C)/C=C/C=C/C=C/1C [Everolimus]
In short: as §1

[3] = compound: CCc1ccc(/C=C2/SC(=S)NC2=O)cc1
In short: as §1

Idasanutlin (RS7388) = compound: COc1cc(C(=O)O)ccc1NC(=O)[C@@H]1N[C@@H](CC(C)(C)C)[C@](C#N)(c2ccc(Cl)cc2F)[C@H]1c1cccc(Cl)c1F [Idasanutlin (RS7388)]
In short: as §1

SGC 0946 = compound: CC(C)N(CCCNC(=O)Nc1ccc(C(C)(C)C)cc1)C[C@H]1O[C@@H](n2cc(Br)c3c(N)ncnc32)[C@H](O)[C@@H]1O [SGC 0946]
In short: as §1

Test System: primary ALL patient cells (S088)
- viability (CPI-169; 0.024 µM): 0.666
- viability (CPI-169; 0.12 µM): 0.704
- viability (CPI-169; 0.6 µM): 0.707
- viability (CPI-169; 3 µM): 0.632
- viability (CPI-169; 15 µM): 0.548
- viability ([1]; 0.024 µM): 0.471
- viability ([1]; 0.12 µM): 0.597
- viability ([1]; 0.6 µM): 0.43
- viability ([1]; 3 µM): 0.548
- viability ([1]; 15 µM): 0.573
- viability (Tofacitinib; 0.024 µM): 0.703
- viability (Tofacitinib; 0.12 µM): 0.707
- viability (Tofacitinib; 0.6 µM): 0.702
- viability (Tofacitinib; 3 µM): 0.78
- viability (Tofacitinib; 15 µM): 0.662
- viability (Vindesine; 0.016 µM): 0.633
- viability (Vindesine; 0.08 µM): 0.464
- viability (Vindesine; 0.4 µM): 0.37
- viability (Vindesine; 2 µM): 0.317
- viability (Vindesine; 10 µM): 0.255
- viability (Venetoclax; 0.00064 µM): 0.916
- viability (Venetoclax; 0.0032 µM): 0.657
- viability (Venetoclax; 0.016 µM): 0.437
- viability (Venetoclax; 0.08 µM): 0.259
- viability (Venetoclax; 0.4 µM): 0.181
- viability ([2]; 0.016 µM): 1.08
- viability ([2]; 0.08 µM): 1.11
- viability ([2]; 0.4 µM): 1.08
- viability ([2]; 2 µM): 1.09
- viability ([2]; 10 µM): 1.05
- viability (Entospletinib; 0.024 µM): 1.01
- viability (Entospletinib; 0.12 µM): 1.06
- viability (Entospletinib; 0.6 µM): 0.954
- viability (Entospletinib; 3 µM): 0.986
- viability (Entospletinib; 15 µM): 1.02
- viability (Midostaurin hydrate; 0.024 µM): 0.899
- viability (Midostaurin hydrate; 0.12 µM): 0.858
- viability (Midostaurin hydrate; 0.6 µM): 0.717
- viability (Midostaurin hydrate; 3 µM): 0.489
- viability (Midostaurin hydrate; 15 µM): 0.265
- viability (EPZ-6438; 0.024 µM): 1.03
- viability (EPZ-6438; 0.12 µM): 1.03
- viability (EPZ-6438; 0.6 µM): 1.02
- viability (EPZ-6438; 3 µM): 0.928
- viability (EPZ-6438; 15 µM): 0.742
- viability (Everolimus; 0.0032 µM): 0.871
- viability (Everolimus; 0.016 µM): 0.782
- viability (Everolimus; 0.08 µM): 0.76
- viability (Everolimus; 0.4 µM): 0.739
- viability (Everolimus; 2 µM): 0.74
- viability ([3]; 0.024 µM): 0.202
- viability ([3]; 0.12 µM): 0.324
- viability ([3]; 0.6 µM): 0.591
- viability ([3]; 3 µM): 0.593
- viability ([3]; 15 µM): 0.571
- viability (Idasanutlin (RS7388); 0.032 µM): 0.557
- viability (Idasanutlin (RS7388); 0.16 µM): 0.423
- viability (Idasanutlin (RS7388); 0.8 µM): 0.286
- viability (Idasanutlin (RS7388); 4 µM): 0.155
- viability (Idasanutlin (RS7388); 20 µM): 0.132
- viability (SGC 0946; 0.024 µM): 0.722
- viability (SGC 0946; 0.12 µM): 0.733
- viability (SGC 0946; 0.6 µM): 0.667
- viability (SGC 0946; 3 µM): 0.681
- viability (SGC 0946; 15 µM): 0.289

Test System: primary AML patient cells (S085)
- viability (CPI-169; 0.024 µM): 1.03
- viability (CPI-169; 0.12 µM): 1.02
- viability (CPI-169; 0.6 µM): 0.96
- viability (CPI-169; 3 µM): 1.2
- viability (CPI-169; 15 µM): 0.866
- viability ([1]; 0.024 µM): 1.26
- viability ([1]; 0.12 µM): 1.87
- viability ([1]; 0.6 µM): 1
- viability ([1]; 3 µM): 1
- viability ([1]; 15 µM): 0.874
- viability (Tofacitinib; 0.024 µM): 0.926
- viability (Tofacitinib; 0.12 µM): 0.815
- viability (Tofacitinib; 0.6 µM): 0.844
- viability (Tofacitinib; 3 µM): 0.908
- viability (Tofacitinib; 15 µM): 0.926
- viability (Vindesine; 0.016 µM): 0.506
- viability (Vindesine; 0.08 µM): 0.368
- viability (Vindesine; 0.4 µM): 0.586
- viability (Vindesine; 2 µM): 0.267
- viability (Vindesine; 10 µM): 0.166
- viability (Venetoclax; 0.00064 µM): 0.916
- viability (Venetoclax; 0.0032 µM): 0.62
- viability (Venetoclax; 0.016 µM): 0.43
- viability (Venetoclax; 0.08 µM): 0.355
- viability (Venetoclax; 0.4 µM): 0.278
- viability ([2]; 0.016 µM): 1.06
- viability ([2]; 0.08 µM): 0.955
- viability ([2]; 0.4 µM): 0.934
- viability ([2]; 2 µM): 1.24
- viability ([2]; 10 µM): 0.951
- viability (Entospletinib; 0.024 µM): 0.979
- viability (Entospletinib; 0.12 µM): 0.931
- viability (Entospletinib; 0.6 µM): 0.93
- viability (Entospletinib; 3 µM): 0.946
- viability (Entospletinib; 15 µM): 0.939
- viability (Midostaurin hydrate; 0.024 µM): 1.15
- viability (Midostaurin hydrate; 0.12 µM): 1
- viability (Midostaurin hydrate; 0.6 µM): 1.13
- viability (Midostaurin hydrate; 3 µM): 2.59
- viability (Midostaurin hydrate; 15 µM): 1.08
- viability (EPZ-6438; 0.024 µM): 1.16
- viability (EPZ-6438; 0.12 µM): 1.13
- viability (EPZ-6438; 0.6 µM): 1.09
- viability (EPZ-6438; 3 µM): 1.08
- viability (EPZ-6438; 15 µM): 0.89
- viability (Everolimus; 0.0032 µM): 0.881
- viability (Everolimus; 0.016 µM): 0.801
- viability (Everolimus; 0.08 µM): 0.873
- viability (Everolimus; 0.4 µM): 0.745
- viability (Everolimus; 2 µM): 0.858
- viability ([3]; 0.024 µM): 0.788
- viability ([3]; 0.12 µM): 0.878
- viability ([3]; 0.6 µM): 1.01
- viability ([3]; 3 µM): 0.834
- viability ([3]; 15 µM): 1
- viability (Idasanutlin (RS7388); 0.032 µM): 0.576
- viability (Idasanutlin (RS7388); 0.16 µM): 0.727
- viability (Idasanutlin (RS7388); 0.8 µM): 0.291
- viability (Idasanutlin (RS7388); 4 µM): 0.177
- viability (Idasanutlin (RS7388); 20 µM): 0.155
- viability (SGC 0946; 0.024 µM): 1.02
- viability (SGC 0946; 0.12 µM): 1.07
- viability (SGC 0946; 0.6 µM): 1
- viability (SGC 0946; 3 µM): 0.969
- viability (SGC 0946; 15 µM): 0.31
